Laboratory results taken from PubChem BioAssay AID248 (DTP/NCI, 2004).
Values joined by “and” are separate entries in the source; they are usually repeats but may differ in a detail not shown here. Equal entries are not always repeated. Toxic doses and inconclusive results are not listed. Rule as the data show it: active = T/C of 150% or more; inactive = T/C below 125%.

Tested on: L1210 leukemia ip in BDF1 mice, survival T/C
Assay: NCI In Vivo Anticancer Drug Screen. Data for tumor model L1210 Leukemia (intraperitoneal) in B6D2F1 (BDF1) mice
Settings: endpoint: mean survival time, higher = longer survival
How it was run: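 Transplanted-tumor mice were given test agent; controls received vehicle only. Survival readings from the two groups were divided (treated over control).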

[1] = dose: 100.0 mg/kg/injection, schedule: Q01DX009 (ip), vehicle: Klucel (hydroxypropylcellulose) (HPC)
[2] = dose: 200.0 mg/kg/injection, schedule: Q01DX009 (ip), vehicle: Klucel (hydroxypropylcellulose) (HPC)
[3] = dose: 400.0 mg/kg/injection, schedule: Q01DX009 (ip), vehicle: Klucel (hydroxypropylcellulose) (HPC)
[4] = dose: 100.0 mg/kg/injection, schedule: Q04DX003 (ip), vehicle: Klucel (hydroxypropylcellulose) (HPC)
[5] = dose: 200.0 mg/kg/injection, schedule: Q04DX003 (ip), vehicle: Klucel (hydroxypropylcellulose) (HPC)
[6] = dose: 400.0 mg/kg/injection, schedule: Q04DX003 (ip), vehicle: Klucel (hydroxypropylcellulose) (HPC)
[7] = dose: 100.0 mg/kg/injection, schedule: Q01DX001 (ip), vehicle: saline with Tween-80
[8] = dose: 200.0 mg/kg/injection, schedule: Q01DX001 (ip), vehicle: saline with Tween-80
[9] = dose: 400.0 mg/kg/injection, schedule: Q01DX001 (ip), vehicle: saline with Tween-80
[10] = dose: 25.0 mg/kg/injection, schedule: Q01DX009 (ip), vehicle: Klucel (hydroxypropylcellulose) (HPC)
[11] = dose: 50.0 mg/kg/injection, schedule: Q01DX009 (ip), vehicle: Klucel (hydroxypropylcellulose) (HPC)
[12] = dose: 100.0 mg/kg/injection, schedule: Q04DX003 (ip), vehicle: saline
[13] = dose: 100.0 mg/kg/injection, schedule: Q01DX001 (ip), vehicle: saline
[14] = dose: 200.0 mg/kg/injection, schedule: Q01DX001 (ip), vehicle: saline
[15] = dose: 400.0 mg/kg/injection, schedule: Q01DX001 (ip), vehicle: saline
[16] = dose: 100.0 mg/kg/injection, schedule: Q04DX002 (ip), vehicle: Klucel (hydroxypropylcellulose) (HPC)
[17] = dose: 200.0 mg/kg/injection, schedule: Q04DX002 (ip), vehicle: Klucel (hydroxypropylcellulose) (HPC)
[18] = dose: 400.0 mg/kg/injection, schedule: Q04DX002 (ip), vehicle: Klucel (hydroxypropylcellulose) (HPC)
[19] = dose: 25.0 mg/kg/injection, schedule: Q04DX003 (ip), vehicle: saline
[20] = dose: 50.0 mg/kg/injection, schedule: Q04DX003 (ip), vehicle: saline

Measured: T/C

COc1cc(C(Br)C(Br)C(=O)c2ccccc2[N+](=O)[O-])cc(OC)c1OC (configuration not stated)
inactive: [1] 95 % of control | [2] 95 % of control | [3] 94 % of control

O=C1OC(c2cccc(Cl)c2)=N/C1=C\C=C/c1ccccc1
inactive: dose: 100.0 mg/kg/injection, schedule: Q01DX001 (ip), vehicle: carboxymethylcellulose (CMC) 95 % of control | dose: 100.0 mg/kg/injection, schedule: Q01DX009 (ip), vehicle: carboxymethylcellulose (CMC) 89 % of control and 92 % of control | dose: 200.0 mg/kg/injection, schedule: Q01DX009 (ip), vehicle: carboxymethylcellulose (CMC) 87 % of control and 92 % of control | dose: 400.0 mg/kg/injection, schedule: Q01DX001 (ip), vehicle: carboxymethylcellulose (CMC) 93 % of control

COC(=O)C1=C(C(=O)OC)C2C=CC1C1(C)C(=O)N(C)C21C (configuration not stated)
inactive: dose: 75.0 mg/kg/injection, schedule: Q04DX002 (ip), vehicle: Klucel (hydroxypropylcellulose) (HPC) 90 % of control | dose: 300.0 mg/kg/injection, schedule: Q04DX002 (ip), vehicle: Klucel (hydroxypropylcellulose) (HPC) 86 % of control

Cc1ccc2[nH]c(C)cc(=O)c2c1
inactive: dose: 2.5 mg/kg/injection, schedule: Q01DX009 (ip), vehicle: saline 109 % of control | dose: 5.0 mg/kg/injection, schedule: Q01DX009 (ip), vehicle: saline 95 % of control | dose: 10.0 mg/kg/injection, schedule: Q01DX001 (ip), vehicle: saline 104 % of control | dose: 10.0 mg/kg/injection, schedule: Q01DX009 (ip), vehicle: saline 106 % of control | dose: 20.0 mg/kg/injection, schedule: Q01DX001 (ip), vehicle: saline 101 % of control | dose: 40.0 mg/kg/injection, schedule: Q01DX001 (ip), vehicle: saline 98 % of control

CCCCCCCCCCCCCCCCS(=O)(=O)c1ccc(NN)cc1
inactive: [1] 89 % of control | [4] 97 % of control | [2] 91 % of control | [5] 98 % of control | [3] 90 % of control | [6] 105 % of control

COc1ccc(CCNC(=O)C(=O)NCCc2ccc(OC)c(OC)c2)cc1OC
inactive: [4] 101 % of control | [5] 89 % of control | [6] 92 % of control

CCCCCC=C(c1ccccc1)c1ccccc1
inactive: [7] 92 % of control | [8] 104 % of control | [9] 95 % of control

Cc1ccc(C)c(NC(=O)Oc2ccc(Cl)cc2Cl)c1
inactive: [10] 87 % of control | [11] 100 % of control | [1] 110 % of control | [4] 90 % of control | [5] 94 % of control | [6] 106 % of control

O=C1CCC2(C/C1=N\Nc1ccccc1)OCCO2
inactive: [12] 100 % of control | dose: 200.0 mg/kg/injection, schedule: Q04DX003 (ip), vehicle: saline 96 % of control | dose: 400.0 mg/kg/injection, schedule: Q04DX003 (ip), vehicle: saline 100 % of control

NC(=S)N/N=C/c1cc(Cl)cc(Cl)c1
inactive: dose: 100.0 mg/kg/injection, schedule: Q01DX001 (ip), vehicle: other 96 % of control | dose: 200.0 mg/kg/injection, schedule: Q01DX001 (ip), vehicle: other 102 % of control | dose: 400.0 mg/kg/injection, schedule: Q01DX001 (ip), vehicle: other 106 % of control

CCOC(=O)c1cccs1
inactive: [1] 99 % of control | [4] 103 % of control | [2] 95 % of control | [5] 100 % of control | [3] 97 % of control | [6] 105 % of control

O=[N+]([O-])C1=C(c2ccccc2)C(c2ccccc2)(c2ccccc2)N=N1
inactive: [13] 100 % of control | [14] 90 % of control | [15] 88 % of control

COc1cccc(NC(=S)Nc2ccc(O)cc2)c1
inactive: [16] 99 % of control | [17] 101 % of control | [18] 104 % of control

ClCC1=NCCCN1
inactive: dose: 3.13 mg/kg/injection, schedule: Q01DX009 (ip), vehicle: Klucel (hydroxypropylcellulose) (HPC) 93 % of control | dose: 6.25 mg/kg/injection, schedule: Q01DX009 (ip), vehicle: Klucel (hydroxypropylcellulose) (HPC) 97 % of control | dose: 12.5 mg/kg/injection, schedule: Q01DX009 (ip), vehicle: Klucel (hydroxypropylcellulose) (HPC) 97 % of control | dose: 12.5 mg/kg/injection, schedule: Q04DX002 (ip), vehicle: Klucel (hydroxypropylcellulose) (HPC) 97 % of control | [10] 97 % of control | dose: 25.0 mg/kg/injection, schedule: Q04DX002 (ip), vehicle: Klucel (hydroxypropylcellulose) (HPC) 104 % of control | [11] 97 % of control | dose: 50.0 mg/kg/injection, schedule: Q04DX002 (ip), vehicle: Klucel (hydroxypropylcellulose) (HPC) 104 % of control | [16] 98 % of control

CCOC(=O)c1cnc(NN)[nH]c1=O
inactive: [4] 97 % of control | [5] 97 % of control

COC(=O)N/N=C/c1cc(OC)ccc1O
inactive: [16] 97 % of control | [17] 114 % of control | [18] 104 % of control

O=C(O)CCCCNC(=O)c1ccc([N+](=O)[O-])cc1
inactive: [7] 99 % of control | [8] 94 % of control | [9] 87 % of control

C=C(C)C(=O)O[C@@H]1C[C@@]2(C)O[C@@H]2C[C@H](O)/C(C)=C/[C@H]2OC(=O)C(=C)[C@@H]21
inactive: dose: 25.0 mg/kg/injection, schedule: Q01DX001 (ip), vehicle: saline 91 % of control | dose: 50.0 mg/kg/injection, schedule: Q01DX001 (ip), vehicle: saline 96 % of control | [13] 112 % of control

CC(=O)N/N=C(/C)c1cccs1
inactive: [13] 103 % of control | [14] 109 % of control | [15] 100 % of control

NC(=O)NC(CCl)NC(N)=O
inactive: dose: 25.0 mg/kg/injection, schedule: Q01DX009 (ip), vehicle: acetone 95 % of control | [19] 96 % of control | dose: 50.0 mg/kg/injection, schedule: Q01DX009 (ip), vehicle: acetone 94 % of control | [20] 94 % of control | dose: 100.0 mg/kg/injection, schedule: Q01DX001 (ip), vehicle: acetone 94 % of control | [12] 89 % of control

C=CCNC(=S)Nc1cccc(OC(=O)Nc2ccc(Cl)c(Cl)c2)c1
inactive: [1] 87 % of control | [2] 92 % of control

COc1cc2c(cc1OC)C1=C(CC2)C2CCCN2CC1 (configuration not stated)
inactive: dose: 6.25 mg/kg/injection, schedule: Q04DX003 (ip), vehicle: saline 100 % of control | dose: 12.5 mg/kg/injection, schedule: Q04DX003 (ip), vehicle: saline 97 % of control | [19] 94 % of control and 105 % of control | [20] 102 % of control

COc1ccc2[nH]c3c(C)c4c(c(C)c3c2c1)CN(C)CC4
inactive: dose: 29.0 mg/kg/injection, schedule: Q01DX Z (ip), vehicle: saline 96 % of control | dose: 44.0 mg/kg/injection, schedule: Q01DX Z (ip), vehicle: saline 98 % of control | dose: 66.0 mg/kg/injection, schedule: Q01DX Z (ip), vehicle: saline 102 % of control | [13] 105 % of control | dose: 100.0 mg/kg/injection, schedule: Q01DX Z (ip), vehicle: saline 98 % of control | dose: 150.0 mg/kg/injection, schedule: Q01DX Z (ip), vehicle: saline 100 % of control | [14] 100 % of control | [15] 102 % of control

CC(C)Cc1ncc(CCCN=C(N)N)[nH]c1=O
inactive: dose: 12.5 mg/kg/injection, schedule: Q04DX002 (ip), vehicle: saline with Tween-80 106 % of control | dose: 25.0 mg/kg/injection, schedule: Q04DX002 (ip), vehicle: saline with Tween-80 98 % of control | dose: 50.0 mg/kg/injection, schedule: Q04DX002 (ip), vehicle: saline with Tween-80 95 % of control | dose: 100.0 mg/kg/injection, schedule: Q04DX002 (ip), vehicle: saline with Tween-80 103 % of control

CC(/C=N/NC(N)=S)=N\N=C(N)N
inactive: dose: 15.0 mg/kg/injection, schedule: Q01DX Z (ip), vehicle: carboxymethylcellulose (CMC) 98 % of control | dose: 30.0 mg/kg/injection, schedule: Q01DX Z (ip), vehicle: carboxymethylcellulose (CMC) 101 % of control | dose: 60.0 mg/kg/injection, schedule: Q01DX Z (ip), vehicle: carboxymethylcellulose (CMC) 98 % of control | dose: 120.0 mg/kg/injection, schedule: Q01DX Z (ip), vehicle: carboxymethylcellulose (CMC) 98 % of control
